Results from patent publication US12319652B2, “Salts and solid forms of (R)-1-(5-methoxy-1H-indol-1-yl)-N,N-dimethylpropan-2-amine” (priority 2021, dated 2025).

Assays:
[1] = Suspension equilibration of compound 1 fumarate at 20 and 40° C.; settings: 10 vol total
Protocol: Amorphous compound 1 fumarate was subjected to this technique at ambient temperature (20° C.) and at elevated temperature (40° C.), in a diverse range of solvents.
Amorphous compound 1 fumarate underwent suspension equilibration in 19 single solvents at two different temperature set points (20 and 40° C.). The products were isolated by centrifugation and analysed wet by XRPD. After drying, the samples were reanalyzed.
At 20° C., dissolution or gumming was initially observed in the presence of most solvents; after several days, five of the gums had mobilised to give stable suspensions (refer to entries, Table 61). The products were isolated via centrifugation and the wet pellets were analysed by XRPD, oven dried and reanalysed by XRPD, TGA, DSC and ^1H NMR.
The companion screen performed at 40° C., yielded no hits. Consequently, the screen was repeated in the presence of an appropriate polarity modifier (either heptane or tBME), to ensure activity of the solvent was maintained while generating stable suspensions from the onset (refer to Table 62).
Separate portions of compound 1 (ca 50 mg, 1.0 wt.) were charged to separate vessels. The appropriate solvents (e.g. 250 μl, 5.0 vol), as described in Table and Table were charged to the vessels and the mixtures were stirred for several days at their relevant temperatures e.g. 20 to 40° C. After this time the products were cooled, isolated by centrifugation, analyzed as wet pellet by XRPD and dried under reduced pressure at 40° C. and re-analyzed by XRPD and companion analyses for evidence of alternative crystalline forms (FIGS. 74-77).

[2] = type: physicochemical
Protocol: Both samples were maintained at 75% RH at 40° C. and monitored by HPLC at time points t=1 h, 3 h, 24 h, 48 h, 7 d, 2 w, 3 w, 4 w and 5 w.
Under the conditions evaluated during this study, XRPD analysis could not be performed as compound 1 Fumarate turned to an oily residue within 3 h under both conditions.
[…] Both samples were maintained under equilibrium humidity of 75% RH at 40° C. and monitored, initially at hourly and then weekly time points.

[3] = Thermocycling of compound 1 Fumarate; settings: computed by software from the powder pattern
Protocol: Thermocycling in different solvents can promote the formation of alternative polymorphic forms. compound 1·Fumarate was heated and cooled between 20° C. and 75% of the relevant solvent b.p. at 0.5° C./minute, for 5 consecutive cycles; a 10-minute dwell was incorporated at each inflection (refer to Table 63). Thermocycling is ripening technique that encourages particle size enlargement and promotes the evolution of the API into a stable phase. […] The products were analysed both wet and dry to determine if form changes had occurred, all products were consistent with monofumarate Form A (refer to FIGS. 16-19 and FIGS. 88-102).
Compound 1 Fumarate (75 mg, 1 wt) was weighed out in to 4 separate vials and the corresponding solvents (750 ul, 10 vol) from Table were charged.
The suspensions underwent constant amplitude thermocycling at ±0.5° C./min up to 75% of the relevant solvent b.p. and −0.5° C./min down to 20° C. The thermocycle was repeated 5 times (FIGS. 16-19 and 88-102).

[4] = Heptane (7 parts)/2-Methyl THF (3 part)
[5] = Heptane (7 parts)/2-Propanol (3 part)
[6] = Heptane (7 parts)/Acetone (3 part)
[7] = Heptane (7 parts)/Acetonitrile (3 part)
[8] = Heptane (7 parts)/Chlorobenzene (3 part)
[9] = Heptane (7 parts)/Dichloromethane (3 part)
[10] = Heptane (7 parts)/Ethanol (3 part)
[11] = Heptane (7 parts)/Ethyl acetate (3 part)
[12] = Heptane (7 parts)/Ethyl formate (3 part)
[13] = Heptane (7 parts)/Heptane (3 part)
[14] = Heptane (7 parts)/Isopropyl acetate (3 part)
[15] = Heptane (7 parts)/Methanol (3 part)
[16] = Heptane (7 parts)/Methyl acetate (3 part)
[17] = Heptane (7 parts)/Methylethyl ketone (3 part)
[18] = Heptane (7 parts)/Nitromethane (3 part)
[19] = Heptane (7 parts)/Tetrahydrofuran (3 part)
[20] = Heptane (7 parts)/Toluene (3 part)
[21] = Heptane (7 parts)/Water (3 part)
[22] = Heptane (7 parts)/tert-Butylmethyl ether (3 part)
[23] = thermocycling in MEK/Heptane (1 to 1)
[24] = thermocycling in Toluene 100.0%

COc1ccc2c(ccn2C[C@@H](C)[NH+](C)C)c1.O=C(O)/C=C/C(=O)O [Compound 1 fumarate, (R)-1-(5-methoxy-1H-indol-1-yl)-N,N-dimethylpropan-2-amine fumarate]
Observations (t = 0 @ 40° C.) [1, 4]: Gum
XRPD (post oven dried) [1, 4]: Pattern #1
XRPD (wet) [1, 4]: Pattern #1
Observations (t = 3 d) @ 40° C.) [1, 5]: Suspension
XRPD (post oven dried) [1, 5]: Pattern #1
XRPD (wet) [1, 5]: Pattern #1
Observations (t = 0 @ 40° C.) [1, 6]: Gum
Observations (t = 1 d) @ 40° C.) [1, 6]: Gum
Observations (t = 3 d) @ 40° C.) [1, 6]: Gum/oil
Observations (t = 7 d @ 40° C.) [1, 6]: Gum
XRPD (post oven dried) [1, 6]: Pattern #1
XRPD (wet) [1, 6]: Pattern #1
Observations (t = 0 @ 40° C.) [1, 7]: Oil (biphasic)
Observations (t = 1 d) @ 40° C.) [1, 7]: Oil (biphasic)
Observations (t = 3 d) @ 40° C.) [1, 7]: Oil (biphasic)
Observations (t = 7 d @ 40° C.) [1, 7]: Oil (biphasic)
Observations (t = 0 @ 40° C.) [1, 8]: Gum
Observations (t = 1 d) @ 40° C.) [1, 8]: Gum
XRPD (post oven dried) [1, 8]: Pattern #1
XRPD (wet) [1, 8]: Pattern #1
XRPD (post oven dried) [1, 9]: Pattern #1
XRPD (wet) [1, 9]: Pattern #1
Observations (t = 3 d) @ 40° C.) [1, 10]: Suspension
XRPD (post oven dried) [1, 10]: Pattern #1
XRPD (wet) [1, 10]: Pattern #1
Observations (t = 0 @ 40° C.) [1, 11]: Gum
Observations (t = 1 d) @ 40° C.) [1, 11]: Gum
Observations (t = 3 d) @ 40° C.) [1, 11]: Gum
Observations (t = 7 d @ 40° C.) [1, 11]: Oil/gum
Observations (t = 3 d) @ 40° C.) [1, 12]: Gum
XRPD (post oven dried) [1, 12]: Pattern #1
XRPD (wet) [1, 12]: Pattern #1
Observations (t = 0 @ 40° C.) [1, 13]: Gum
Observations (t = 1 d) @ 40° C.) [1, 13]: Gum
XRPD (post oven dried) [1, 13]: Pattern #1
XRPD (wet) [1, 13]: Pattern #1
Observations (t = 0 @ 40° C.) [1, 14]: Gum
XRPD (post oven dried) [1, 14]: Pattern #1
XRPD (wet) [1, 14]: Pattern #1
Observations (t = 0 @ 40° C.) [1, 15]: Oil (biphasic)
Observations (t = 1 d) @ 40° C.) [1, 15]: Oil (biphasic)
Observations (t = 3 d) @ 40° C.) [1, 15]: Biphasic (oil)
Observations (t = 7 d @ 40° C.) [1, 15]: Oil (biphasic)
XRPD (post oven dried) [1, 15]: Pattern #1
XRPD (wet) [1, 15]: Pattern #1
XRPD (post oven dried) [1, 16]: Pattern #1
XRPD (wet) [1, 16]: Pattern #1
Observations (t = 0 @ 40° C.) [1, 17]: Gum
XRPD (post oven dried) [1, 17]: Pattern #1
XRPD (wet) [1, 17]: Pattern #1
Observations (t = 0 @ 40° C.) [1, 18]: Oil (biphasic)
Observations (t = 1 d) @ 40° C.) [1, 18]: Oil (biphasic)
Observations (t = 3 d) @ 40° C.) [1, 18]: Oil (biphasic)
Observations (t = 0 @ 40° C.) [1, 19]: Gum
XRPD (post oven dried) [1, 19]: Pattern #1
XRPD (wet) [1, 19]: Pattern #1
Observations (t = 0 @ 40° C.) [1, 20]: Gum
Observations (t = 1 d) @ 40° C.) [1, 20]: Gum
XRPD (post oven dried) [1, 20]: Pattern #1
XRPD (wet) [1, 20]: Pattern #1
Observations (t = 0 @ 40° C.) [1, 21]: Oil (biphasic)
Observations (t = 1 d) @ 40° C.) [1, 21]: Oil (biphasic)
Observations (t = 3 d) @ 40° C.) [1, 21]: Oil (biphasic)
Observations (t = 7 d @ 40° C.) [1, 21]: Oil (biphasic)
Observations (t = 0 @ 40° C.) [1, 22]: Gum
Observations (t = 1 d) @ 40° C.) [1, 22]: Gum
Observations (t = 3 d) @ 40° C.) [1, 22]: Gum
Observations (t = 7 d @ 40° C.) [1, 22]: Oil/gum
Decrease of chemical purity ([2]; 75% RH/40° C., 5 week time point): approximately 2 % area
Stability of the amorphous phase ([2]; 75% RH/40° C., 5 weeks): good stability
Time to turn to an oily residue ([2]; 75% RH/40° C., both conditions (open vial and double bagged)): ≤ 3 h
Preliminary stability evaluation (hydrate formation or degradation) ([2]; several weeks at 40° C./75% RH): no evidence for hydrate formation or degradation
XRPD crystallinity (dry, %) [3, 23]: 83.2%
XRPD crystallinity (wet, %) [3, 23]: 83.4%
XRPD crystallinity (dry, %) [3, 24]: 68.1%
XRPD crystallinity (wet, %) [3, 24]: 52.4%
XRPD crystallinity (dry, %) ([3]; thermocycling in iPAC 100.0%): 82.7%
XRPD crystallinity (wet, %) ([3]; thermocycling in iPAC 100.0%): 80.7%
XRPD crystallinity (dry, %) ([3]; thermocycling in tBME 100.0%): 81.0%
XRPD crystallinity (wet, %) ([3]; thermocycling in tBME 100.0%): 79.0%
